We go through one compound from patent publication US11992497B2 (priority 2021, dated 2024).

For data set [1], the system named is cryopreserved hepatocytes. Briefly: Hepatocyte stability and metabolite profiling. Format: in vitro ADME, dog. The note with it: dog hepatocyte samples. The method, then:
(§1) The objective of this study was to investigate the stability of the test compound, CBG, in human, rat, dog, mouse, monkey and minipig cryopreserved hepatocytes. Follow-on metabolite profiling was performed.
(§2) CBG was incubated up to 2 hr with cryopreserved hepatocytes. Cryopreserved hepatocytes in suspension were added to test compound in supplemented media following pre-incubation to initiate the reaction and the reactions were stopped by organic solvent at the appropriate time points. The termination plates were centrifuged and sample supernatants were analysed using Cyprotex generic LC MS/MS conditions to generate intrinsic clearance values for CBG. Two control compounds for each species were included in the assay and if the values for these compounds were not within the specified limits the results were rejected and the experiment repeated.
(§3) Following the hepatocyte stability assay the samples were 59tilized for metabolite profiling using suitable high-resolution LC-MS/MS conditions. The 40 and 60 minute human samples, 20 and 120 minute rat samples, 10 and 20 minute dog and monkey samples, 20 and 60 minute mouse samples, and 40 and 120 minute minipig samples were compared against the 0 minute control sample to establish which and how many metabolites were formed. […] No further analysis was carried out with the mouse species.
(§4) The areas and percentages reported for the parent and metabolites were calculated using the XIC data. Metabolite observed at greater than 1% of the total of drug related material are reported. […] For accuracy, a ppm error of less than 5 is desirable; when the response for a metabolite observed is low the ppm error maybe greater than 5. Where a metabolite has been referred to as a potential oxidation it can refer to a potential hydroxylation, epoxidation or oxide formation. Representative collision induced dissociation (CID) mass spectra were obtained for the metabolites found.

The nature of data set [2]: Hepatocyte stability and metabolite profiling. Type of data set: in vitro ADME, dog. The note with it: cryopreserved hepatocytes in suspension; Dog cryopreserved hepatocytes. The protocol: as §1, §2, §3, §4
Data set [3] has as its system cryopreserved hepatocytes. Briefly: Hepatocyte stability and metabolite profiling. The note with it: human hepatocyte samples. Type of data set: in vitro ADME, human. The method, then:
as §1, §2, §3, §4

Data set [4] is described as follows: Hepatocyte stability and metabolite profiling. Format: in vitro ADME, human. The note with it: cryopreserved hepatocytes in suspension; Human cryopreserved hepatocytes. The protocol: as §1, §2, §3, §4

`CCCCCc1cc(O)c(C/C=C(\C)CCC=C(C)C)c(O)c1` [CBG, cannabigerol]: the figures for the “number of metabolites observed” value in data set [1] and in data set [3] were “three” and “Seven”, respectively. Besides, the half-life (usually the time in which the quantity being followed falls by half) in data set [2] was found to be 52.7 min; in data set [4], 22.6 min. Moreover, the hepatocyte CLint – broadly, the rate of metabolic loss divided by the concentration – was determined as 26.3 µL/min/1e6 cells in data set [2] and 61.4 µL/min/1e6 cells in data set [4].
